Measured values reported in US20020115122A1, “Method and apparatus for automated assessment of the immunoregulatory status of the mononuclear leukocyte immune system” (priority 1998, published 2002).

Assays:
[1] = test system: peripheral blood mononuclear cells from normal donors; test: Stimulation index by tritiated thymidine uptake in PHA culture; assay type: cell-based, human; conditions: 72 hours in culture with PHA
Protocol: This analysis is correlated with the stimulation index as measured by a 72 hour PHA culture with tritiated thymidine uptake. Peripheral blood mononuclear cells from normal donors were isolated by density gradient centrifugation, cultured with PHA, incubated with monoclonal antibodies to select mononuclear cell subclass antigenic determinants and to IL-2 receptors and four parameter data generated and analyzed similar as described in “Detailed Description”. Monoclonal antibodies used included FITC-conjugated antibody for the antigenic determinants Leu-4, Leu-3a or Leu-2a, and PE-conjugated monoclonal antibody for IL-2 receptor. Four parameter data was collected on cells using an EPICS-V flow cytofluorometer (Coulter Corporation, Hialeah, Fla.) configured as described in “Detailed Description” with the following modification: the argon laser was used at 500 milliwatts. Forward and orthogonal light scatter parameters were analyzed to determine if the cell was within an area of interest which substantially included lymphocytes, lymphoblasts and monocytes. Green and red fluorescence data analysis was performed for such cells. The percentage of antigenic determinant and/or IL-2 receptor positive mononuclear cells, i.e., Leu-4+, Leu-3a+, Leu-2a+, IL2R+, leu-4+IL2R+, Leu-3a+IL2R+and Leu-2a+IL2R+, was determined as per the methods described herein. […]

[2] = test system: peripheral blood mononuclear cells from normal donors; test: Antigenic determinant and IL-2 receptor expression on PHA stimulated mononuclear cells (flow cytofluorometry); assay type: cell-based, human; conditions: for IL2R+ percentage positive / Leu 2a+ percentage positive / Leu 3a+ percentage positive / Leu 4+ percentage positive: N = 9, ± standard error; for ratio of Activated Leu-3a+: Activated Leu-2a+ cells: at 18 hours in culture with PHA
Protocol: The sample of isolated cells is cultured with a standard stimulus for a period of time sufficient to allow a measurable amount of activation antigen expression, as influenced by mononuclear cell subclass interaction, to develop. In this particular embodiment, the isolated cells at a concentration of 1 million cells per milliliter are cultured with PHA at a concentration of 37.5 micrograms per milliliter, serving as a standard stimulus, for 18 hours. RPMI 1640 with fetal calf serum and glutamine serve as a culture media. The culture time is determined for each particular standard stimulus using samples from normal subjects, culturing portions of each sample for different lengths of time and determining the amount of activation antigen expression for each culture time. A measurable amount of IL-2 receptor expression is observed about 18 hours after initiating the culture with PHA. The 18 hour culture period facilitates the use of this invention as a clinical assay.
After culturing, the cells are washed to remove the standard stimulus and then aliquots of cells are simultaneously incubated with two monoclonal antibodies, each directly conjugated to different fluorometrically distinguishable fluorophores. The first fluorophore-conjugated monoclonal antibody binds to a select mononuclear cell subclass antigenic determinant and the second fluorometrically distinguishable fluorophore-conjugated monoclonal antibody binds to a select cell surface activation antigen. After incubation, the cells are washed to remove excess antibody and, in this particular embodiment, fixed with 1% paraformaldehyde to halt any further cellular activity.
This analysis is correlated with the stimulation index as measured by a 72 hour PHA culture with tritiated thymidine uptake. Peripheral blood mononuclear cells from normal donors were isolated by density gradient centrifugation, cultured with PHA, incubated with monoclonal antibodies to select mononuclear cell subclass antigenic determinants and to IL-2 receptors and four parameter data generated and analyzed similar as described in “Detailed Description”. Monoclonal antibodies used included FITC-conjugated antibody for the antigenic determinants Leu-4, Leu-3a or Leu-2a, and PE-conjugated monoclonal antibody for IL-2 receptor. Four parameter data was collected on cells using an EPICS-V flow cytofluorometer (Coulter Corporation, Hialeah, Fla.) configured as described in “Detailed Description” with the following modification: the argon laser was used at 500 milliwatts. Forward and orthogonal light scatter parameters were analyzed to determine if the cell was within an area of interest which substantially included lymphocytes, lymphoblasts and monocytes. Green and red fluorescence data analysis was performed for such cells. The percentage of antigenic determinant and/or IL-2 receptor positive mononuclear cells, i.e., Leu-4+, Leu-3a+, Leu-2a+, IL2R+, leu-4+IL2R+, Leu-3a+IL2R+and Leu-2a+IL2R+, was determined as per the methods described herein. The results were not corrected for non-specific binding.
First, mononuclear cell subclass antigenic determinant and activation antigen analysis of PHA stimulated mononuclear cells was conducted using aliquots incubated with only one monoclonal antibody.
Analysis of the PEA stimulated mononuclear cells was conducted using aliquots incubated with a FITC-conjugated monoclonal antibody to detect antigenic determinants and anti-IL2R-PE.

[3] = 18 hours in culture with PHA, normal donors
[4] = 24 hours in culture with PHA, normal donors
[5] = 48 hours in culture with PHA, normal donors
[6] = Subject D, 18 hours in culture with PHA
[7] = Subject D, 24 hours in culture with PHA
[8] = Subject D, 48 hours in culture with PHA
[9] = Subject N, 18 hours in culture with PHA
[10] = Subject N, 48 hours in culture with PHA

phytohemagglutinin [PHA]
SI at 72 ([1]; Subject D): 535
SI at 72 ([1]; Subject N): 8
IL2R+ percentage positive ([2]; 18 hours in culture with PHA): 61 ± 1.9 percentage
Leu 2a+ percentage positive ([2]; 18 hours in culture with PHA): 18 ± 1.0 percentage
Leu 3a+ percentage positive ([2]; 18 hours in culture with PHA): 54 ± 1.7 percentage
Leu 4+ percentage positive ([2]; 18 hours in culture with PHA): 79 ± 2.4 percentage
Activated Leu-2a+ [2, 3]: 25 ± 6.4 Percentage
Activated Leu-3a+ [2, 3]: 49 ± 8.9 Percentage
Activated Leu-4+ [2, 3]: 49 ± 6.1 Percentage
IL2R+ percentage positive ([2]; 24 hours in culture with PHA): 71 ± 1.9 percentage
Leu 2a+ percentage positive ([2]; 24 hours in culture with PHA): 18 ± 0.7 percentage
Leu 3a+ percentage positive ([2]; 24 hours in culture with PHA): 54 ± 1.3 percentage
Leu 4+ percentage positive ([2]; 24 hours in culture with PHA): 77 ± 1.9 percentage
Activated Leu-2a+ [2, 4]: 32 ± 4.5 Percentage
Activated Leu-3a+ [2, 4]: 62 ± 8.5 Percentage
Activated Leu-4+ [2, 4]: 62 ± 3.7 Percentage
IL2R+ percentage positive ([2]; 48 hours in culture with PHA): 80 ± 1.5 percentage
Leu 2a+ percentage positive ([2]; 48 hours in culture with PHA): 19 ± 2.0 percentage
Leu 3a+ percentage positive ([2]; 48 hours in culture with PHA): 53 ± 2.8 percentage
Leu 4+ percentage positive ([2]; 48 hours in culture with PHA): 81 ± 2.2 percentage
Activated Leu-2a+ [2, 5]: 55 ± 8.0 Percentage
Activated Leu-3a+ [2, 5]: 70 ± 9.5 Percentage
Activated Leu-4+ [2, 5]: 72 ± 5.5 Percentage
time after initiating the culture at which a measurable amount of IL-2 receptor expression is observed ([2]; PHA 37.5 micrograms per milliliter, 1 million cells per milliliter): about 18 hours
Activated Leu-2a+ [2, 6]: 32 Percentage
Activated Leu-3a+ [2, 6]: 74 Percentage
Activated Leu-4+ [2, 6]: 68 Percentage
Activated Leu-2a+ [2, 7]: 32 Percentage
Activated Leu-3a+ [2, 7]: 79 Percentage
Activated Leu-4+ [2, 7]: 75 Percentage
Activated Leu-2a+ [2, 8]: 76 Percentage
Activated Leu-3a+ [2, 8]: 92 Percentage
Activated Leu-4+ [2, 8]: 84 Percentage
ratio of Activated Leu-3a+: Activated Leu-2a+ cells ([2]; Subject D): 2.31
Activated Leu-2a+ [2, 9]: 30 Percentage
Activated Leu-3a+ [2, 9]: 31 Percentage
Activated Leu-4+ [2, 9]: 32 Percentage
Activated Leu-4+ ([2]; Subject N, 24 hours in culture with PHA): 59 Percentage
Activated Leu-2a+ [2, 10]: 71 Percentage
Activated Leu-3a+ [2, 10]: 44 Percentage
ratio of Activated Leu-3a+: Activated Leu-2a+ cells ([2]; Subject N): 1.03
ratio of Activated Leu-3a+: Activated Leu-2a+ cells ([2]; Subject N, listed as PRA): approximately 1.0
subclass preference of activation ([2]; mononuclear cells which are Leu-3a+ versus Leu-2a+): preferentially activates helper/inducer T-cells
